Measurements from patent US20250189527A1, “COMPOSITIONS AND METHODS FOR DETECTING, PREDICTING RISK OF DEVELOPING, AND TREATING LEPTOMENINGEAL DISEASE” (Duke University, priority 2022, published 2025).

Assays:
CSF1R+ cells [1] = assay: Depletion of CSF1R+ cells in CSF1R-GFP reporter mice fed PLX5622 chow (whole mount and intravital imaging); type: in vivo, mouse; conditions: 1200 mg kg^−1 in AIN-76A rodent chow for three days; brain parenchyma and LM
Procedure: FIG. 16A-E: Meningeal macrophages co-localize with EO-LM2 cells and are depleted with the CSF1R inhibitor, PLX5622. a, Confocal intravital microscopy (IVM) of the brain leptomeninges (LM) showing tdTomato+EO-LM2 cells co-localizing with CSF1R+ myeloid cells in the perivascular space of LM vessels (white). Scale bar=[…]. b, Representative whole mount (brain parenchyma) and IVM (LM) images of CSF1R-GFP reporter mice treated with either control or PLX5622 (1200 mg kg^−1) formulated AIN-76A rodent chow for three days. CSF1R+ cells=green. Vessels=white. c, Quantification of the number of CSF1R+ cells per imaging field of view of mice in (b). Three 10× field of view images acquired per mouse. Unpaired, two-sided Student's t-test. n=3 mice per group. ***P=0.0001. ****P<0.0001. s.e.m. d, Dosing Strategy for experiment in FIG. 11k,l. e, Dosing strategy for experiment in FIG. 11m,n.
PLX5622 (ChemGood) was formulated into AIN-76A rodent chow at 1200 mg kg^−1 by Research Diets Inc. Formulated chow was irradiated prior to administration. CSF1R-GFP (MacGreen) mice were given AIN-76A±PLX5622 for three days prior to engraftment and continued to feed on formulated or control chow for the duration of the study. […]
(§1) Intravital and whole mount images were imported into ImageJ for quantification. […] Tissue bordered were then traced and the mean tdT signal was measured over total tissue area.

EO-LM2 cells [2] = assay: Time to LMD progression (HLP score of 0.5) in EO-LM2-engrafted mice, vehicle vs. PLX5622; type: in vivo, mouse; conditions: PLX5622 chow 1200 mg kg^−1 from three days prior to engraftment, P=0.0002
Text: (§2) FIG. 11A-Q: Meningeal macrophages promote BCC survival through GDNF/NCAM signaling. a, Volcano plot of differentially expressed genes in EO-LM2 vs. −P cells. b, Ncam1 mean fluorescence intensity (MFI) by flow cytometry. n=3 biological replicates. Two-sided, unpaired Student's t-test. c, Representative intravital microscopy (IVM) and quantification of EO-LM2 vs. −NCAM1KO cells in the LM of mice on day 3 post-engraftment. n=3 mice. Two-sided, unpaired Student's t-test. d, Hindlimb paralysis (HLP) incidence and representative brain section H&E of paired EO-LM2 vs. −NCAM1KO mice euthanized when either reached a clinical endpoint (EP). n=5 mice. […] Arrows=CSFIR+ cells (green). n=3 mice; n=18-43 cells quantified/mouse. […] Arrowheads=tdT+1833 cells. i, Flow cytometry quantification of GDNF expression in cells isolated from meninges of EO-LM2 mice. n=3 biological replicates. […] Two-sided, unpaired Student's t-test. m, Representative 3D IVM images of EO-LM2 cells (red, arrowheads) co-localizing with CSF1R+ cells (green) surrounding LM vessels (white) in veh. vs. PLX5622-treated mice on day 3 or 10 post-engraftment. n, Quantification of EO-LM2 and CSF1R co-localizing (co-loc.) or non-co-localizing (no-coloc.) cells in the LM of mice in (m). n−3 mice. […]

GDNF = GDNF immunofluorescence on meninges cytospins from EO-LM2-engrafted CSF1R-GFP mice; type: in vivo, mouse; conditions: meninges cytospin at endpoint, veh. vs. PLX5622-treated EO-LM2 mice; P=0.0232
Text: The mouse meninges were isolated as described by Louveau et al (Louveau, A., Filiano, A. J. & Kipnis, J. Meningeal whole mount preparation and characterization of neural cells by flow cytometry. Current protocols in immunology 121, e50-e50 (2018)). Briefly, the skull cap was removed and placed in a cold PBS bath under a dissecting microscope. Using fine forceps, the meninges were carefully peeled off the skull. Any remaining meninges on the brain surface were carefully removed with fine forceps while limiting the removal of residual brain parenchyma. The meninges were digested for 45 min at 37° C. in digest buffer (1×HBSS with calcium and magnesium (Corning), 5% FBS, 10 mM HEPES, DNase (Sigma Aldrich, 20 U mL^−1), Liberase DL (Sigma Aldrich, 10 mg mL^−1), Liberase TL (Sigma Aldrich, 10 mg mL^−1)) and lightly shaken every 10 min. The digested solution was then passed through a 70-μm cell strainer and a rubber syringe pump was used to gently push through any undigested tissue. […]
Glass 96-well plates were coated with 100 μL of poly-D-lysine (Sigma Aldrich, 0.1 mg mL^−1) in water at room temperature for 1 h and then washed three times with sterile PBS and allowed to air dry for 15 min in a tissue culture hood. […] ImageJ was used to quantify raw integrated pixel density per cell.

EO-LM2 cells [3] = assay: Intravital microscopy of EO-LM2 cells in the LM of vehicle vs. PLX5622-treated mice; type: in vivo, mouse
Procedure: PLX5622 (ChemGood) was formulated into AIN-76A rodent chow at 1200 mg kg^−1 by Research Diets Inc. Formulated chow was irradiated prior to administration. CSF1R-GFP (MacGreen) mice were given AIN-76A±PLX5622 for three days prior to engraftment and continued to feed on formulated or control chow for the duration of the study.
Mice were anaesthetized using isoflurane and the cortical bone was exposed following a sagittal incision in the scalp. The head of the mouse was secured using a stereotactic apparatus. A micromotor high-speed drill (Stoelting) with a carbide 0.75-mm drill bit (Stoelting) was used to thin the skull immediately to the left of the sagittal suture and centered between the coronal suture and the lambdoid suture. The skull-thinned region was circular and approximately 1 mm in diameter and the thinning continued until the meningeal vessels were visible under a dissecting microscope and the remaining bone was about 50 μm thin. PBS was used to clean the surgical site and dissipate heat every 15 sec. High-resolution images of the leptomeninges were obtained through the skull thinned window using a Leica SP8 confocal and multiphoton microscope with a 25× water immersion lens. […]
as §1

CSF1R+ cells [4] = conditions: systemic (non-CNS) populations; cited from earlier work
1833 cells = assay: GDNF glucose starvation assay, 1833 cells; type: cell-based, human; conditions: glucose free media+1% FBS, GDNF 100 ng mL^−1, 48 h, P=0.0203 vs. vehicle/isotype
Procedure: (§3) 1×10^5 1833 or EO-LM2 cells were seeded in glucose free or complete media+1% FBS in a 12-well plate. The cells were treated with recombinant human/mouse GDNF (PeproTech, 100 ng mL^−1) or vehicle (0.1% BSA in water) and anti-CD49f neutralizing antibody (Invitrogen, 2.5 μg mL^−1) or isotype control. The cells were incubated at 37° C. and 5% CO2 for 24 h (EO-LM2) or 48 h (1833) and then trypsinized and counted with a hemacytometer. The number of live cells in the glucose deprived conditions were then divided by the number of cells in the glucose complete condition to determine the percent of cells alive after glucose deprivation.

EO-LM2 cells [5] = assay: GDNF glucose starvation assay, EO-LM2 cells; type: cell-based, mouse; conditions: glucose free media+1% FBS, GDNF 100 ng mL^−1, 24 h, P=0.0120 vs. vehicle/isotype
Procedure: as §3

EO-LM2 cells [6] = assay: Intracerebroventricular (ICV) GDNF rescue experiment in tumored, CSF1R-depleted mice; type: in vivo, mouse; conditions: intraventricular GDNF vs. veh. ICV in PLX5622-treated tumored mice; P=0.0002
Text: as §2

Molecule | depletion of CSF1R+ cells from the CNS (CSF1R+ cells [1]) | time to LMD progression (time to HLP score of 0.5) (EO-LM2 cells [2]) | LM cells expressing GDNF (GDNF) | initial BCC invasion of the LM (EO-LM2 cells [3]; day 3 post-engraftment, veh. vs. PLX5622) | subsequent BCC expansion within the LM (EO-LM2 cells [3]; day 10 post-engraftment, veh. vs. PLX5622, P<0.0001) | effects on systemic CSF1R+ populations (CSF1R+ cells [4]) | protection from cell death in low glucose conditions (percent live cells after glucose deprivation) (1833 cells) | protection from cell death in low glucose conditions (percent live cells after glucose deprivation) (EO-LM2 cells [5]) | LMD progression (time to HLP score of 0.5) (EO-LM2 cells [6])
COc1ncc(F)cc1CNc1ccc(Cc2c[nH]c3ncc(C)cc23)c(F)n1 [PLX5622] | dramatically depletes | substantially prolonged | dramatic decrease | did not affect | did prevent | modest effects |  |  | 
Recombinant GDNF: recombinant human/mouse glial cell line-derived neurotrophic factor (PeproTech) (protein, UniProt P39905 78-211, looked up) Glial cell line-derived …: SPDKQMAVLPRRERNRQAAAANPENSRGKGRRGQRGKNRGCVLTAIHLNVTDLGLGYETKEELIFRYCSGSCDAAETTYDKILKNLSRNRRLVSDKVGQACCRPIAFDDDLSFLDDNLVYHILRKHSAKRCGCI |  |  |  |  |  |  | marked protection from cell death | marked protection from cell death | accelerated LMD progression
